# Experimental data taken from article PMC5122408, “High throughput chemical library screening identifies a novel p110-δ inhibitor that potentiates the anti-myeloma effect of bortezomib” (Oncotarget, 2016).
# Tests used:
# [1] = test system: NCI-H460; assay: NCI-60 panel cell growth screen; type: cell-based, human; conditions: NCI-H460 (NSCLC)
# [2] = test system: HCC-2998; assay: NCI-60 panel cell growth screen; type: cell-based, human; conditions: HCC-2998 (Colon cancer)
# [3] = test system: HCT-15; assay: NCI-60 panel cell growth screen; type: cell-based, human; conditions: HCT-15 (Colon cancer)
# [4] = test system: SW-620; assay: NCI-60 panel cell growth screen; type: cell-based, human; conditions: SW-620 (Colon cancer)
# [5] = test system: SF-268; assay: NCI-60 panel cell growth screen; type: cell-based, human; conditions: SF-268 (CNS Cancer)
# [6] = test system: SF-295; assay: NCI-60 panel cell growth screen; type: cell-based, human; conditions: SF-295 (CNS Cancer)
# [7] = test system: SNB-19; assay: NCI-60 panel cell growth screen; type: cell-based, human; conditions: SNB-19 (CNS Cancer)
# [8] = test system: U25; assay: NCI-60 panel cell growth screen; type: cell-based, human; conditions: U25 (CNS Cancer)
# [9] = test system: AKT; assay: Immunoblot of AKT phosphorylation in MM cells; type: cell-based; conditions: DT97 500 nm or 1 uM for 48 h
# [10] = biological target: p110-β (Homo sapiens, UniProt P42338); assay: Kinase inhibitory profile / PIP3 production
# Chain of p110-β (P42338 whole entry): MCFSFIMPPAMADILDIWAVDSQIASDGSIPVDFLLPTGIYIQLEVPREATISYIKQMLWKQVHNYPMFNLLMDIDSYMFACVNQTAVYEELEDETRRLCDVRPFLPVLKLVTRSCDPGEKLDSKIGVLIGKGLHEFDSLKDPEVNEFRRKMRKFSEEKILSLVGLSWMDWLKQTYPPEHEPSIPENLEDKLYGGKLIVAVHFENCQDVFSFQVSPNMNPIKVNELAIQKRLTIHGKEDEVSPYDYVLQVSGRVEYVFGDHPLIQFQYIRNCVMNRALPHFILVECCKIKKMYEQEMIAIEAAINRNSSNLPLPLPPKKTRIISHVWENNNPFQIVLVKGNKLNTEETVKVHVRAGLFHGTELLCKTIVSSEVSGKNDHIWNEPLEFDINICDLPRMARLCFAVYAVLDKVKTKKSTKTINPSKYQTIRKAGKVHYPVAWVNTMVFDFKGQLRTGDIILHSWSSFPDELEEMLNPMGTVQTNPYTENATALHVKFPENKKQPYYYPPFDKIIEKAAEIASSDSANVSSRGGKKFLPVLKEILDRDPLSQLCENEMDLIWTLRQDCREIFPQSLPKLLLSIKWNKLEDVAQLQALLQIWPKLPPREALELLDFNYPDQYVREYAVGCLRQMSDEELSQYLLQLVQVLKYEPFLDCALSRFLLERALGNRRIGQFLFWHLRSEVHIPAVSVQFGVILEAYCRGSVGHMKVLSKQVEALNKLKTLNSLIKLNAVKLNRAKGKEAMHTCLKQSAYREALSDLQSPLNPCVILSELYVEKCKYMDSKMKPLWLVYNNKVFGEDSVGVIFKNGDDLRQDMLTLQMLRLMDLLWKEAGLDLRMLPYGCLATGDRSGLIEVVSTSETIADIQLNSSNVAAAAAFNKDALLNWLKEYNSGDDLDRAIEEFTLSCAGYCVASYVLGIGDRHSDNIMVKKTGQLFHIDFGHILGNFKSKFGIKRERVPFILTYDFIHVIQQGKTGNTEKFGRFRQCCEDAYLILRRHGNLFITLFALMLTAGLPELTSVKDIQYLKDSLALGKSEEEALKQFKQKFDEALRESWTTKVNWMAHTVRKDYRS
# Chain of p110-β (P27986 whole entry partner): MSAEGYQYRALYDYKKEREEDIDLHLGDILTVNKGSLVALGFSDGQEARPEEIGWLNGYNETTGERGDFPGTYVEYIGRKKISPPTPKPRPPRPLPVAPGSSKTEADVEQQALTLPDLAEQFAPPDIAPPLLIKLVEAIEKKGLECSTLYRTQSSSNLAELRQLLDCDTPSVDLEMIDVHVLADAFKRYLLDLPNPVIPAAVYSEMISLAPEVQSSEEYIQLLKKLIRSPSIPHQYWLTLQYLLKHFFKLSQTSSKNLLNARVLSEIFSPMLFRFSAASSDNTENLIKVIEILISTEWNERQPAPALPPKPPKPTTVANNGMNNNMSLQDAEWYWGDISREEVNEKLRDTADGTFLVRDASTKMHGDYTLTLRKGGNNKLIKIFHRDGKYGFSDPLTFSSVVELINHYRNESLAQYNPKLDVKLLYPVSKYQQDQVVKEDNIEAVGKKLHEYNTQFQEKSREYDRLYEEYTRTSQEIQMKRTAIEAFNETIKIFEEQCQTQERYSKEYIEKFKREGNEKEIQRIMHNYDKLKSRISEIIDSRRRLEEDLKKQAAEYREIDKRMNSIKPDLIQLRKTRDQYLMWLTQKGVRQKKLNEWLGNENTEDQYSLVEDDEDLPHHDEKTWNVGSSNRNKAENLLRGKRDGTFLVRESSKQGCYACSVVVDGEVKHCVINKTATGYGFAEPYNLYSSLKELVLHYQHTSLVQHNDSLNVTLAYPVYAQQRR
# Method: To directly assess PI3K activity, PI3K was isolated by immunoprecipitation using an antibody to the p85 adapter subunit and the ability of the co-precipitated catalytic p110 subunit to convert PIP2 to PIP3 in a kinase reaction assessed by measuring the amount of PIP3 generated using a competitive ELISA [40, 41]. […] Lysates were centrifuged at 13,000 × rpm for 10 min and supernatants stored at −80°C. Frozen lysates were thawed and PI3K immunoprecipitated with 5 μl anti-PI3K p85 (Cell Signaling Technology, Danvers, MA) for 1 h at 4°C, followed by the addition of 60 μl of a 50% slurry of Protein A agarose beads for 1 h at 4°C. The immunoprecipitate was collected by centrifugation at 13,000 × rpm for 10 sec, washed 3 times in buffer A + 1% NP40, thrice with 0.1 M Tris-HCl, pH 7.4, 5 mM LiCl, 0.1 mM Na orthovanadate and twice with 10 mM Tris-HCl, pH 7.4, 150 mM NaCl, 5 mM ethylenediaminetetraacetic acid (EDTA), 0.1 mM Na orthovanadate. […] Reactions were incubated for 3 h at 37°C with 40 pmol PIP2 (Echelon Biosciences, Salt Lake City, UT). Reactions were stopped with EDTA (5 mM) and centrifuged at 13,000 × rpm at 4°C. Supernatants were transferred to a microtitre plate for a competitive ELISA (Echelon Biosciences) to quantify PIP3 generated. […] Absorbance was measured (450 nm) and PIP3 quantified using a standard curve generated with experimental samples and plotted on a log scale.
# [11] = read-out: LC50 (the source's name)
substance,measurement,setting,value
N-[4-hydroxy-3-(8-quinolinylthio)-1-naphthyl]benzenesulfonamide [DT97],Percent Growth,[1]; log concentration −7.0,98%
same,Percent Growth,[1]; log concentration −8.0,101%
same,GI50,[2],4.77 µM
same,TGI,[2],1.91E-5
same,Percent Growth,[2]; log concentration −4.0,−82%
same,Percent Growth,[2]; log concentration −5.0,32%
same,Percent Growth,[2]; log concentration −6.0,88%
same,Percent Growth,[2]; log concentration −7.0,106%
same,Percent Growth,[2]; log concentration −8.0,105%
same,CC50,[2]; [11],52.4 µM
same,GI50,[3],0.464 µM
same,TGI,[3],2.50E-6
same,Percent Growth,[3]; log concentration −4.0,−70%
same,Percent Growth,[3]; log concentration −5.0,−40%
same,Percent Growth,[3]; log concentration −6.0,27%
same,Percent Growth,[3]; log concentration −7.0,97%
same,Percent Growth,[3]; log concentration −8.0,100%
same,CC50,[3]; [11],21.2 µM
same,GI50,[4],1.04 µM
same,TGI,[4],1.16E-5
same,Percent Growth,[4]; log concentration −4.0,−49%
same,Percent Growth,[4]; log concentration −5.0,3%
same,Percent Growth,[4]; log concentration −6.0,51%
same,Percent Growth,[4]; log concentration −7.0,88%
same,Percent Growth,[4]; log concentration −8.0,94%
same,CC50,[4]; [11],> 100 µM
same,GI50,[5],1.48 µM
same,TGI,[5],1.28E-5
same,Percent Growth,[5]; log concentration −4.0,−68%
same,Percent Growth,[5]; log concentration −5.0,8%
same,Percent Growth,[5]; log concentration −6.0,59%
same,Percent Growth,[5]; log concentration −7.0,100%
same,Percent Growth,[5]; log concentration −8.0,98%
same,CC50,[5]; [11],57.7 µM
same,GI50,[6],2.84 µM
same,TGI,[6],1.50E-5
same,Percent Growth,[6]; log concentration −4.0,−78%
same,Percent Growth,[6]; log concentration −5.0,17%
same,Percent Growth,[6]; log concentration −6.0,78%
same,Percent Growth,[6]; log concentration −7.0,94%
same,Percent Growth,[6]; log concentration −8.0,92%
same,CC50,[6]; [11],50.7 µM
same,GI50,[7],1.98 µM
same,TGI,[7],2.14E-5
same,Percent Growth,[7]; log concentration −4.0,−59%
same,Percent Growth,[7]; log concentration −5.0,29%
same,Percent Growth,[7]; log concentration −6.0,59%
same,Percent Growth,[7]; log concentration −7.0,94%
same,Percent Growth,[7]; log concentration −8.0,95%
same,CC50,[7]; [11],78.3 µM
same,GI50,[8],0.78 µM
same,TGI,[8],2.42E-5
same,Percent Growth,[8]; log concentration −4.0,−13%
same,Percent Growth,[8]; log concentration −5.0,8%
same,Percent Growth,[8]; log concentration −6.0,43%
same,Percent Growth,[8]; log concentration −7.0,107%
same,Percent Growth,[8]; log concentration −8.0,103%
same,CC50,[8]; [11],> 100 µM
same,phosphorylation of AKT at Ser308/Thr473,[9],reduced the phosphorylation
same,Inhibitory profile (kinase inhibition),"[10]; Class I PI3Ks, 10-point concentration assays",none
same,production of PIP3 (dose-dependent effect),"[10]; p110-β isoform, Figure 4B",no effect
